Measured values: patent US7264314B2, “Adrenocorticotropic hormone analogs and related methods” (priority 2004, dated 2007)
No end group written: not given here.

Tested on: serum corticosterone in dexamethasone-suppressed mice
Test: in vivo Serum Corticosteroid Induction Assay
Set-up: species or system FVB/N mice
Settings: compared to unmodified mACTH(1–24); 1 μg s.c.; blood one hour after administration
Experimental: An in vivo Serum Corticosteroid Induction Assay measures the level of corticosteroid or corticosterone in the blood stream of a subject. More specifically, the in vivo Serum Corticosteroid Induction Assay can include the following steps: first, an agent to suppress endogenous ACTH production was administered to a mouse subject, such as an intraperitoneal injection of dexamethasone; second, after waiting a suitable period of time for suppression of endogenous ACTH production (e.g., 1.5–2.0 hours), a test compound can be administered to the mouse by a suitable method, such as intraperitoneal or subcutaneous injection; and third, after waiting a suitable period of time (e.g., 1 hour) for action of the injected test compound, a blood sample can be taken from the subject and the level of serum corticosterone can be determined by a suitable method, such as a competitive radioimmunoassay using ^125I RIA kit (ICN, Costa Mesa, Calif.). Example 1 describes a murine in vivo Serum Corticosteroid Induction Assay in detail.
The corticosteroid or corticosterone secretion induced in vivo by an ACTH analog compound was compared to the level of corticosteroid secretion produced by an unmodified ACTH compound by measuring blood serum corticosteroid after administering either the ACTH or ACTH analog as test compounds. […] ACTH analog compositions with decreased function were identified by measuring corticosterone levels using standard radioimmunoassay (RIA) analysis on blood samples collected one hour after administering the mACTH(1–24) or ACTH analog compound to dexamethasone-suppressed mice. In FIG. 1, the potency of various ACTH analog peptides is expressed as per cent induction of corticosterone, with mouse ACTH being 100%. […] The percent of corticosterone induction 12 of ACTH analog Compounds in Samples 2–10 are shown as a percentage of the concentration of serum corticosterone 20 measured for unmodified mACTH(1–24) in the in vivo Serum Corticosteroid Adrenal Induction Assay. The structural modifications and measured percentage reduction in serum measured for Samples 2–10 in FIG. 1 are shown in Table 3 below.
The in vivo Serum Corticosteroid Induction Assay was performed according the following method. First, two to three month-old male FVB/N mice from our colony, five per group, were injected intraperitoneally with dexamethasone (0.4 mg/0.1 ml PBS per mouse; Sigma, St. Louis, Mo.) to suppress their endogenous ACTH production. See Hajos, G T et al., “Studies of the potency of polypeptides with ACTH action by a new method based on continuous measurement of plasma corticosterone,” Steroids Lipids Res 3:225–228 (1972), Costa, J L, et al., “Mutational analysis of evolutionarily conserved ACTH residues,” Gen Comp Endocrinol, 136:12–16 (2004), and Karpac, J, et al., “Development, Maintenance, and Function of the Adrenal Gland in Early Postnatal Pro-opiomelanocortin Null Mutant Mice,” Endocrinology (2005), published online ahead of print Feb. 24, 2005, all of which are incorporated herein by reference.
Second, ninety to one hundred twenty minutes later, the dexamethasone-suppressed mice were injected subcutaneously between the shoulder blades with either unmodified mACTH(1–24) or one of several ACTH analog peptide compounds (1 μg/0.1 mL PBS/0.5% BSA), or with vehicle alone (control) (0.1 mL PBS/0.5% BSA). The following ACTH analog peptide compounds were administered to separate mice: 1: murine ACTH1–24; 2: V26F,E30K; 3: P19W,K21E,Y23R; 4: E30K,P36R; 5: ALA19–24; 6: V26F,P36R; 7: P19W, K21E; 8: P19W,K21A,delY23; 9: P19W,K21A; 10: KRRP16-19RMW (AT814) (SEQ ID NO:20).
Third, one hour later, blood was collected within less than 1 minute from a small incision in the tail, and serum was flash-frozen and stored at −80° C. until assayed. Serum corticosterone was determined by competitive radioimmunoassay (^125I RIA kit; ICN, Costa Mesa, Calif.) according to the manufacturer's recommendations. One microliter of serum was used per assay sample. […]

N-Ser^1-Tyr-Ser-Met-Glu^5-His-Phe-Arg-Trp-Gly^10-Lys-Pro-Val-Gly-Lys^15-Arg-Ala-Ala-Trp-Val^20-Lys-Val-Tyr-Pro-Ac (SYSMEHFRWGKPVGKRAAWVKVYP; not fully specified (C-terminus); printed as N-Ser1-Tyr-Ser-Met-Glu5-His-Phe-Arg-Trp-Gly10-Lys-Pro-Val-Gly-Lys15-Arg-Ala-Ala-Trp-Val20-Lys-Val-Tyr-Pro-Ac) [AT814]
Percent reduction in serum corticosteroid: 100%
